Reference: the supplement of paper PMC11451515

Test system: SEM cells
Assay: cell viability relative to DMSO control; higher = less cytotoxic
Settings: 48 h
Method in brief: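 NOMO1 or SEM (500 cells/well) or P12-Ichikawa (1000 cells/well) leukemia cells were adapted for at least four passages in each medium. They were seeded in 1536-well plates (5 μl) and pin-dosed with library compounds in DMSO over an 11-point threefold series, 47 μM to 0.79 nM. CellTiter-Glo One luminescence was read after 48 h at 37°C. Viability is the per-plate percentage relative to DMSO wells, with cell-free wells as background.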

[1] = HPLM + 10% dialyzed FBS, 0.000781 µM
[2] = HPLM + 10% dialyzed FBS, 0.00234 µM
[3] = HPLM + 10% dialyzed FBS, 0.00702 µM
[4] = HPLM + 10% dialyzed FBS, 0.0211 µM
[5] = HPLM + 10% dialyzed FBS, 0.0632 µM
[6] = HPLM + 10% dialyzed FBS, 0.19 µM
[7] = HPLM + 10% dialyzed FBS, 0.569 µM
[8] = HPLM + 10% dialyzed FBS, 1.71 µM
[9] = HPLM + 10% dialyzed FBS, 5.12 µM
[10] = HPLM + 10% dialyzed FBS, 15.4 µM
[11] = HPLM + 10% dialyzed FBS, 46.1 µM
[12] = RPMI 5 mM glucose + 10% FBS, 0.000781 µM
[13] = RPMI 5 mM glucose + 10% FBS, 0.00234 µM
[14] = RPMI 5 mM glucose + 10% FBS, 0.00702 µM
[15] = RPMI 5 mM glucose + 10% FBS, 0.0211 µM
[16] = RPMI 5 mM glucose + 10% FBS, 0.0632 µM
[17] = RPMI 5 mM glucose + 10% FBS, 0.19 µM
[18] = RPMI 5 mM glucose + 10% FBS, 0.569 µM
[19] = RPMI 5 mM glucose + 10% FBS, 1.71 µM
[20] = RPMI 5 mM glucose + 10% FBS, 5.12 µM
[21] = RPMI 5 mM glucose + 10% FBS, 15.4 µM
[22] = RPMI 5 mM glucose + 10% FBS, 46.1 µM
[23] = RPMI 5 mM glucose + 10% dialyzed FBS, 0.000781 µM
[24] = RPMI 5 mM glucose + 10% dialyzed FBS, 0.00234 µM
[25] = RPMI 5 mM glucose + 10% dialyzed FBS, 0.00702 µM
[26] = RPMI 5 mM glucose + 10% dialyzed FBS, 0.0211 µM
[27] = RPMI 5 mM glucose + 10% dialyzed FBS, 0.0632 µM
[28] = RPMI 5 mM glucose + 10% dialyzed FBS, 0.19 µM
[29] = RPMI 5 mM glucose + 10% dialyzed FBS, 0.569 µM
[30] = RPMI 5 mM glucose + 10% dialyzed FBS, 1.71 µM
[31] = RPMI 5 mM glucose + 10% dialyzed FBS, 5.12 µM
[32] = RPMI 5 mM glucose + 10% dialyzed FBS, 15.4 µM
[33] = RPMI 5 mM glucose + 10% dialyzed FBS, 46.1 µM

Structure (SMILES) | cell viability [1] [%] | cell viability [2] [%] | cell viability [3] [%] | cell viability [4] [%] | cell viability [5] [%] | cell viability [6] [%] | cell viability [7] [%] | cell viability [8] [%] | cell viability [9] [%] | cell viability [10] [%] | cell viability [11] [%] | cell viability [12] [%] | cell viability [13] [%] | cell viability [14] [%] | cell viability [15] [%] | cell viability [16] [%] | cell viability [17] [%] | cell viability [18] [%] | cell viability [19] [%] | cell viability [20] [%] | cell viability [21] [%] | cell viability [22] [%] | cell viability [23] [%] | cell viability [24] [%] | cell viability [25] [%] | cell viability [26] [%] | cell viability [27] [%] | cell viability [28] [%] | cell viability [29] [%] | cell viability [30] [%] | cell viability [31] [%] | cell viability [32] [%] | cell viability [33] [%]
COC1=CC=C(C=C1)C2CC(=N/N2C3=CC=C(C=C3)[S+](N)([O-])=O)\C4=CC=CC=C4 (stereo not drawn) | 83.3 | 91.2 | 91.4 | 104 | 110 | 69.2 | 86.3 | 51.3 | 30.9 | 4.3 | 2.47 | 104 | 86.1 | 107 | 104 | 107 | 43.4 | 72.9 | 37.8 | 14.8 | 2.74 | 1.62 | 87.3 | 74 | 84.3 | 95.4 | 100 | 60.1 | 63.3 | 45.9 | 19 | 2.63 | 2.05
O=C(CCc1ccc(O)cc1)c1c(O)cc(O)cc1O[C@@H]1O[C@H](CO)[C@@H](O)[C@H](O)[C@H]1O | 78.3 | 99.9 | 107 | 107 | 100 | 85.8 | 88.2 | 102 | 104 | 93.1 | 81.9 | 80.9 | 93.9 | 98.4 | 97.6 | 79.6 | 94.6 | 89.4 | 78.6 | 93.7 | 92.2 | 83.4 | 61.4 | 102 | 89.6 | 104 | 86.9 | 89.1 | 90.5 | 86.7 | 89.5 | 77.4 | 73.1
CN[C@@H]1C[C@H]2O[C@@](C)([C@@H]1OC)n1c3ccccc3c3c4c(c5c6ccccc6n2c5c31)C(=O)N[C@H]4O | 72.1 | 79.1 | 87.6 | 77.7 | 64 | 55.4 | 36.7 | 16.5 | 6.79 | 3.78 | 3.23 | 81.2 | 87.9 | 83.8 | 84.1 | 57.5 | 69.5 | 35.4 | 5.65 | 4.44 | 4.12 | 2.58 | 82.8 | 78 | 76.6 | 90.4 | 67.3 | 69.8 | 45 | 5.6 | 5.83 | 3.57 | 2.57
Cc1cc(Cl)ccc1OCCCC(=O)NO | 105 | 96.7 | 103 | 117 | 130 | 120 | 118 | 101 | 89 | 34 | 12.8 | 107 | 101 | 102 | 122 | 112 | 117 | 115 | 124 | 91.7 | 43.9 | 10.9 | 98.8 | 96.2 | 93.5 | 99.4 | 97.1 | 106 | 105 | 89.5 | 76.5 | 26.7 | 10.2
CN[S+](=O)([O-])CCc1ccc2[nH]cc(C3CCN(C)CC3)c2c1 | 78.4 | 74.3 | 87.2 | 98.7 | 97.7 | 108 | 91.8 | 99.7 | 109 | 111 | 110 | 84 | 67.4 | 90.8 | 101 | 94.1 | 103 | 92.5 | 105 | 110 | 99.7 | 88.8 | 87 | 75.4 | 99.6 | 86.6 | 93.3 | 99.4 | 90.9 | 97 | 84.2 | 92.9 | 85.5
Cc1ccc(C(=O)c2cc(O)c(O)c([N+](=O)[O-])c2)cc1 | 78.2 | 96.4 | 98.5 | 81.4 | 97.7 | 91.1 | 115 | 110 | 108 | 111 | 95.6 | 92.6 | 88 | 103 | 100 | 96.7 | 101 | 101 | 99.7 | 110 | 87.6 | 95.9 | 83.1 | 82.8 | 88.7 | 96.1 | 93.4 | 94 | 80.8 | 89.4 | 102 | 88.8 | 101
O=C(CCCCCCC(=O)Nc1ccccc1)NO | 77.1 | 112 | 102 | 103 | 124 | 116 | 108 | 108 | 18.8 | 7.11 | 5.17 | 94.2 | 116 | 135 | 123 | 111 | 118 | 125 | 127 | 25 | 6.63 | 5.85 | 62.6 | 100 | 106 | 109 | 114 | 106 | 121 | 103 | 16.4 | 6.03 | 4.79
CO[C@H]1C[C@@H]2CC[C@@H](C)[C@@](O)(O2)C(=O)C(=O)N2CCCC[C@H]2C(=O)O[C@H]([C@H](C)C[C@@H]2CC[C@@H](OCCO)[C@H](OC)C2)CC(=O)[C@H](C)/C=C(/C)[C@@H](O)[C@@H](OC)C(=O)[C@H](C)C[C@H](C)\C=C/C=C\C=C/1C | 47.5 | 91.9 | 74.6 | 65.2 | 77.2 | 58.6 | 42.7 | 42.1 | 20.8 | 10.7 | 14.2 | 51.7 | 86.2 | 71.1 | 71.7 | 75 | 64.9 | 41.5 | 28.4 | 17.2 | 12.9 | 12.6 | 50.8 | 84 | 73.8 | 65.4 | 68.3 | 63.4 | 49.5 | 37 | 13.7 | 10.4 | 11.8
CCOC1=CC(=CC=C1C/2=N/[C@@](C)(C3=CC=C(Cl)C=C3)[C@](C)(N2C(=O)N4CCN(CC4)CC(=O)N5CCOCC5)C6=CC=C(Cl)C=C6)C(C)(C)C | 82.5 | 107 | 108 | 107 | 117 | 106 | 105 | 93.5 | 81.1 | 66 | 71 |  |  |  |  |  |  |  |  |  |  |  | 112 | 99.8 | 108 | 111 | 107 | 109 | 116 | 109 | 90.2 | 65.2 | 61.4
C[S+]([O-])c1ccc(-c2nc(-c3ccc(F)cc3)c(-c3ccncc3)[nH]2)cc1 (stereo not drawn) | 83.2 | 84.2 | 91.8 | 84 | 102 | 81.5 | 86.9 | 62 | 40.9 | 4.09 | 2.22 | 103 | 106 | 102 | 105 | 107 | 79.3 | 75.1 | 41 | 21.9 | 3.29 | 2.41 | 92.6 | 99.7 | 89.8 | 97.8 | 98.1 | 77 | 79.2 | 59.4 | 26.1 | 3.71 | 2.23
O=C1CCc2ccc(OCCCCN3CCN(c4cccc(Cl)c4Cl)CC3)cc2N1 | 111 | 121 | 111 | 41 | 113 | 112 | 101 | 89.2 | 129 | 119 | 113 | 104 | 111 | 105 | 24.5 | 96.4 | 101 | 98.5 | 23.1 | 107 | 95.7 | 73.1 | 120 | 108 | 113 | 34.9 | 105 | 112 | 120 | 106 | 105 | 117 | 74.7
COc1ccc(Nc2cc(-c3cnc(N)nc3)nc(N3CCOCC3)n2)cn1 | 93.8 | 96.7 | 90.6 | 96.8 | 99.4 | 102 | 92.6 | 84.7 | 47.3 | 59.8 | 44.6 | 104 | 104 | 110 | 115 | 120 | 99.5 | 108 | 99 | 52.8 | 65.6 | 57 | 98.6 | 89.5 | 91 | 105 | 97 | 80.9 | 89.6 | 89.7 | 43.9 | 57.4 | 44.5
O=C1N\2CCC3=C([NH]C4=C3C=CC=C4)C2=N/C5=CC=CC=C15 | 96 | 102 | 114 | 118 | 92.8 | 123 | 123 | 115 | 110 | 90.8 | 76.8 | 124 | 113 | 137 | 134 | 109 | 126 | 122 | 147 | 144 | 95 | 83.7 | 123 | 112 | 142 | 135 | 121 | 153 | 147 | 135 | 151 | 101 | 53.6
CC(C)c1ccccc1Cc1cc(C(=O)Nc2ccc([S+](=O)([O-])c3ccccc3C(C)(C)C)cc2)c(O)c(O)c1O | 104 | 127 | 116 | 106 | 113 | 101 | 109 | 115 | 68.6 | 94.2 | 94.6 |  |  |  |  |  |  |  |  |  |  |  | 129 | 118 | 120 | 105 | 120 | 112 | 138 | 123 | 32.7 | 69.8 | 92.1
CCCCCCCCc1ccc(CCC(N)(CO)CO)cc1 | 103 | 108 | 108 | 111 | 101 | 120 | 110 | 118 | 97.1 | 83.2 | 2.73 | 99.4 | 115 | 107 | 120 | 122 | 111 | 115 | 121 | 93.7 | 107 | 2.59 | 105 | 116 | 117 | 110 | 104 | 110 | 115 | 109 | 107 | 124 | 3.38
